Measured values reported in US20240025875A1, “A COMPOUND AS A THYROID HORMONE BETA RECEPTOR AGONIST AND USE THEREOF” (SUNSHINE LAKE PHARMA CO., LTD., priority 2020, published 2024).

Assays:
TRα = target: T1, TRα (Homo sapiens, UniProt P10827); experiment: LanthaScreen TR-FRET Thyroid Receptor alfa Coactivator Assay (in vitro binding activity); conditions: TR alfa-LBD
T1 construct: 5 μL of 4×TR beta/alfa-LBD; purchased Invitrogen PV4687
Protocol: (§1) 2. Detection of the Binding Activity of the Compound of the Present Invention to TRα or TRβ In Vitro
(§2) Test Materials • LanthaScreen TR-FRET Thyroid Receptor beta Coactivator Assay kit was purchased from Invitrogen, Cat. No. PV4686; • LanthaScreen TR-FRET Thyroid Receptor alfa Coactivator Assay kit was purchased from Invitrogen, Cat. No. PV4687.
(§3) The method was experimented with LanthaScreen TR-FRET Thyroid Receptor beta/alfa Coactivator Assay kit. The test compound was dissolved in DMSO and diluted 3 times to a total of 10 concentrations, and then diluted with TR-FRET Coregulator Buffer C in the kit to form a solution containing 2% DMSO, 10 μL of the solution containing 2% DMSO was taken into a 384-well plate, then 5 μL of 4×TR beta/alfa-LBD, 5 μL of a mixture containing 0.4 μM fluorescein-SRC2-2 and 8 nM Tb anti-GST antibody were added into each well, mixed thoroughly, and incubated at room temperature for 1 h in the dark. After 1 h, BMG LABTECH's PHERAstar FSX microplate reader was used to read the fluorescence value (RFU) at […]. The TR-FRET ratio was calculated by dividing the emission signal at 520 nm by the emission signal at 495 nm. Graph Pad Prism 5 software was used to draw the curve and calculate the EC50 value. The in vitro binding activity test results of some of the compounds of the examples of the present invention are shown in Table 1 below.

TRβ = target: T2, TRβ (Homo sapiens, UniProt P10828); experiment: LanthaScreen TR-FRET Thyroid Receptor beta Coactivator Assay (in vitro binding activity); conditions: TR beta-LBD
T2 construct: 5 μL of 4×TR beta/alfa-LBD; purchased Invitrogen PV4686
T2 sequence (P10828 217-461 limits assumed): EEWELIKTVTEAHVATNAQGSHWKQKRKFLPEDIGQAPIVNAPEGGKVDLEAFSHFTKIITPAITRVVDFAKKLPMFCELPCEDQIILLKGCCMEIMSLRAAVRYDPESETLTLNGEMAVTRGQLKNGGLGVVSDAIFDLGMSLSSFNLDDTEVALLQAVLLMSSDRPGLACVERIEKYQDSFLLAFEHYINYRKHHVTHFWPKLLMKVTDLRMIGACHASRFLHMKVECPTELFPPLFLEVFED
Protocol: as §1, §2, §3

[1] = Pharmacokinetic determination in SD rats (i.v. and i.g.); type: in vivo; conditions: for AUC(0-inf) / AUC(0-t) / Cmax / clearance / half-life / Vd: male, Sprague-Dawley (SD), rat, plasma; for Vd: read-out: VSS
Text: Test purposes: The following method was used to determine the pharmacokinetics of the compound of the present invention.
Test Materials: • Experimental reagents and test samples used: Propranolol (internal standard), methanol, ammonium acetate, K2EDTA (potassium ethylenediaminetetraacetic acid), formic acid, acetonitrile MTBE (methyl tert-butyl ether). KolliphorHS15 (macrogol 12 hydroxystearate), DMSO (dimethyl sulfoxide) are commercially available • SD rats: male, 180-220 g, 7-8 weeks old, purchased from Human Slack Experimental Animal Co., Ltd.
Each test sample prepared was completely dissolved in a mixture of 5% DMSO+5% KolliphorHS 15+90% Saline according solubility property thereof.
Samples were processed by liquid-liquid extraction, chromatographically separated, quantitatively analyzed by multiple reaction ion monitoring (MRM) on a triple quadrupole tandem mass spectrometer, and the concentration of the results was calculated by instrument quantitative software.
30 μL of plasma sample was precisely pipetted, added with 250 μL of internal standard, and vortexed to mix thoroughly. Plasma samples was extracted once with 1 mL of MTBE, centrifuged at 13,000 rpm for 2 min at 4° C. 800 μL of the supernatant was sucked out, evaporated to dryness in a 96-well nitrogen blower, and the residue was reconstituted with 150 μL of methanol/water (v/v=50/50), vortexed to mix, and injected with an injection volume of 8 μL.
LC/MS/MS method was used to determine the content of the test compound in rat plasma after administration of different compounds.
Pharmacokinetic parameters were calculated using a noncompartmental method by WinNonLin 6.1 software.

T1 sequence (P10827 163-410 isoform P10827-2 limits assumed, other chains not shown): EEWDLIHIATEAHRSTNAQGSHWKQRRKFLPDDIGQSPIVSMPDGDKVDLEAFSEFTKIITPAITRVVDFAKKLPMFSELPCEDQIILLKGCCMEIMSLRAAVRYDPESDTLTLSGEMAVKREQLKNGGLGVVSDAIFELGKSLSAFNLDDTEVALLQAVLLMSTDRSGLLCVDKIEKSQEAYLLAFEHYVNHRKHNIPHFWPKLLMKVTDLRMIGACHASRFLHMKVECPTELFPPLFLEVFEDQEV

SMILES	EC50 (TRα) [µM]	EC50 (TRβ) [µM]	F ([1]; ig, 5 mg/kg) [%]	AUC(0-inf) ([1]; iv, 1 mg/kg) [µg·h/mL]	AUC(0-t) ([1]; iv, 1 mg/kg) [µg·h/mL]	Cmax ([1]; iv, 1 mg/kg) [µg/mL]	clearance ([1]; iv, 1 mg/kg) [L/h/kg]	half-life ([1]; iv, 1 mg/kg) [h]	Vd ([1]; iv, 1 mg/kg) [L/kg]	AUC(0-inf) ([1]; po, ig, 5 mg/kg) [µg·h/mL]	AUC(0-t) ([1]; po, ig, 5 mg/kg) [µg·h/mL]	Cmax ([1]; po, ig, 5 mg/kg) [µg/mL]	half-life ([1]; po, ig, 5 mg/kg) [h]
O=C1c2ccc(Oc3c(Cl)cc(-n4ncc(=O)[nH]c4=O)cc3Cl)cc2CCN1c1cccnc1 [Example 49, 2-(3,5-dichloro-4-((1-oxo-2-(pyridin-3-yl)-1,2,3,4-tetrahydroisoquinolin-6-yl)oxy)phenyl)-1,2,4-triazine-3,5(2H,4H)-dione]	> 100	0.107	138.3	3.73	3.58	5.3	0.268	1.14	0.306	25.8	25.3	9.68	3.63
O=C1c2ccc(Oc3c(Cl)cc(-n4ncc(=O)[nH]c4=O)cc3Cl)cc2CCN1Cc1ccc(C(F)(F)F)cc1 [Example 29, 2-(3,5-dichloro-4-((1-oxo-2-(4-(trifluoromethyl)benzyl)-1,2,3,4-tetrahydroisoquinolin-6-yl)oxy)phenyl)-1,2,4-triazine-3,5(2H,4H)-dione]	> 100	0.091	66.2	56	48.7	4.27	0.0178	8.47	0.194	236	159	10.3	14.1
O=C1c2ccc(Oc3c(Cl)cc(-n4ncc(=O)[nH]c4=O)cc3Cl)cc2CCN1c1cccc(F)c1 [Example 42, 2-(3,5-dichloro-4-((2-(3-fluorophenyl)-1-oxo-1,2,3,4-tetrahydroisoquinolin-6-yl)oxy)phenyl)-1,2,4-triazine-3,5(2H,4H)-dione]	> 100	0.016	134.8	1.96	1.86	4.34	0.509	2.97	0.658	13.2	12.7	7.7	2.53
Cc1ccc(CN2CCc3cc(Oc4c(Cl)cc(-n5ncc(=O)[nH]c5=O)cc4Cl)ccc3C2=O)cc1 [Example 21, 2-(3,5-dichloro-4-((2-(4-methylbenzyl)-1-oxo-1,2,3,4-tetrahydroisoquinolin-6-yl)oxy)phenyl)-1,2,4-triazine-3,5(2H,4H)-dione]	> 100	0.019	81.9	1.02	1.02	2.76	0.978	1.02	0.308	4.18	4.16	4.73	1.44
O=C1c2ccc(Oc3c(Cl)cc(-n4ncc(=O)[nH]c4=O)cc3Cl)cc2CCN1Cc1ccc(Cl)cc1 [Example 37, 2-(3,5-dichloro-4-((2-(4-chlorobenzyl)-1-oxo-1,2,3,4-tetrahydroisoquinolin-6-yl)oxy)phenyl)-1,2,4-triazine-3,5(2H,4H)-dione]	> 100	0.043	116.3	21.1	20.9	4.2	0.0473	3.61	0.212	122	121	12.3	3.5
O=C1c2ccc(Oc3c(Cl)cc(-n4ncc(=O)[nH]c4=O)cc3Cl)cc2CCN1Cc1cccc(OC(F)(F)F)c1 [Example 43, 2-(3,5-dichloro-4-((1-oxo-2-(3-(trifluoromethoxy)benzyl)-1,2,3,4-tetrahydroisoquinolin-6-yl)oxy)phenyl)-1,2,4-triazine-3,5(2H,4H)-dione]	> 100	0.031	68.4	47.7	39.8	3.41	0.0209	9.52	0.26	212	134	8.12	15.7
O=C1c2ccc(Oc3c(Cl)cc(-n4ncc(=O)[nH]c4=O)cc3Cl)cc2CCN1Cc1cccnc1 [Example 45, 2-(3,5-dichloro-4-((1-oxo-2-(pyridin-3-ylmethyl)-1,2,3,4-tetrahydroisoquinolin-6-yl)oxy)phenyl)-1,2,4-triazine-3,5(2H,4H)-dione]	> 100	0.061	163.9	2.51	2.46	1.78	0.399	1.15	0.57	20.6	20.3	5.32	4.14
O=C1c2ccc(Oc3c(Cl)cc(-n4ncc(=O)[nH]c4=O)cc3Cl)cc2CCN1c1ccccc1F [Example 44, 2-(3,5-dichloro-4-((2-(2-fluorophenyl)-1-oxo-1,2,3,4-tetrahydroisoquinolin-6-yl)oxy)phenyl)-1,2,4-triazine-3,5(2H,4H)-dione]	> 100	0.0097	133.3	2.15	2.11	5.43	0.464	2.11	0.4	14.3	13.9	9.03	1.64
O=C1c2ccc(Oc3c(Cl)cc(-n4ncc(=O)[nH]c4=O)cc3Cl)cc2CCN1Cc1ccncc1 [Example 24, 2-(3,5-dichloro-4-((1-oxo-2-(pyridin-4-ylmethyl)-1,2,3,4-tetrahydroisoquinolin-6-yl)oxy)phenyl)-1,2,4-triazine-3,5(2H,4H)-dione]	> 100	0.075	117.7	3.79	3.72	4.02	0.263	1.16	0.337	223	21.9	7.79	2.65
O=C1c2ccc(Oc3c(Cl)cc(-n4ncc(=O)[nH]c4=O)cc3Cl)cc2CCN1c1ccc(F)cc1 [Example 28]	> 100	0.017	97.6	9.64	8.73	8.4	0.104	2.91	0.246	47	47	15.5	2.29
O=C1c2ccc(Oc3c(Cl)cc(-n4ncc(=O)[nH]c4=O)cc3Cl)cc2CCN1Cc1cccc(F)c1 [Example 31, 2-(3,5-dichloro-4-((2-(3-fluorobenzyl)-1-oxo-1,2,3,4-tetrahydroisoquinolin-6-yl)oxy)phenyl)-1,2,4-triazine-3,5(2H,4H)-dione]	0.107	< 0.0046	–	–	–	–	–	–	–	–	–	–	–
O=C1c2ccc(Oc3c(Cl)cc(-n4ncc(=O)[nH]c4=O)cc3Cl)cc2CCN1Cc1ccccc1F [Example 33, 2-(3,5-dichloro-4-((2-(2-fluorobenzyl)-1-oxo-1,2,3,4-tetrahydroisoquinolin-6-yl)oxy)phenyl)-1,2,4-triazine-3,5(2H,4H)-dione]	0.156	0.017	–	–	–	–	–	–	–	–	–	–	–
